In patent publication US9550792B2, “Polycyclic substituted pyrazole kinase activity inhibitors and use thereof” (priority 2013, dated 2017):
Converted amounts (≈) assume the structure as drawn. “And” between values parts separate entries of the source, which are not always exact repeats. Equal values may be shown once. Read-outs that look alike come from different tables or passages of the source.

Tests used:
[1] = target: CDK9/cyclin K (Homo sapiens, UniProt P50750); test: Kinase IC50, 33P labeled isotope method; format: biochemical; conditions: 20 μM ATP
[2] = test system: Candida parapsilosis; test: Antifungal activity, modified broth microdilution; format: cell-based; conditions: Lodderomyces parapsilosis; 48 hours at 35, approximately 50% reduction of growth
Procedure: (§1) The test microorganisms are maintained on Sabourahd Dextrose Agar slant at 4[…]. Singlet suspension of each microorganism is prepared by growing the yeast overnight at 27[…] on a rotating drum in yeast-nitrogen base broth (YNB) with amino acids (Difco, Detroit, Mich.), (pH 7.0) and 0.05 morpholine propanesulphonic acid (MOPS). […] The activity of the test compound is determined using a modified broth microdilution technique. […] Well 12 serves as a growth control. […] Inoculated plate is incubated for 48 hours at 35 °C. […] Minimal Cytolytic Concentration (MCC) is determined by subculturing all wells from the 96-well plate onto a Sabourahd Dextrose Agar (SDA) plate, incubating for 1-2 days at 35 °C, and then checking viability.

[3] = test system: Candida albicans - ATCC 36082; test: Antifungal activity, modified broth microdilution; format: cell-based; conditions: Candida albicans, ATCC36082; 48 hours at 35, approximately 50% reduction of growth
Procedure: as §1

[4] = test system: Cryptococcus neoformans; test: Antifungal activity, modified broth microdilution; format: cell-based; conditions: Cryptococcus neoformans; 48 hours at 35, approximately 50% reduction of growth
Procedure: as §1

[5] = test system: Candida tropicalis; test: Antifungal activity, modified broth microdilution; format: cell-based; conditions: Candida tropicalis; 48 hours at 35, approximately 50% reduction of growth
Procedure: as §1

[6] = test system: lung cancer cell H1299; test: Anti-tumor activity in vitro, MTT method; format: cell-based; conditions: Homo sapiens, NCI-H1299, 48 h, read-out: H1299 (IC50/μM)
[7] = test system: Phytophthora infestans; format: in vivo
[8] = Pharmacokinetics after single oral dose in rats; format: in vivo, Wistar rat
Procedure: (§2) 300 μL blood collected from the rat was mixed with 30 μL methanol and 2 mL ethyl acetate. The samples were vortexed for 3 min and centrifuged at 4000 rpm for 15 min. The supernatant was introduced into another centrifugal tube. The lower layer was repeatedly extracted and then the supernatants were combined and dried with nitrogen gas. After redissolution with 150 μL methanol, they were filtered by 0.22 μm membrane and then subjected to analysis with a injection volume of 20 μL.
An amount of compound was taken accurately to prepare CMC-Na aqueous solution containing 3 mg/mL of drug. 12 healthy male Wister rats were randomly assigned to two groups, each group including 6 rats. The first group was administrated orally compound 1. The second group was administrated orally compound 2. The doses were both 30 mg/kg (corresponding to 2 mL for each rat). The rats were fasting for 12 h before administration and free access to water. 0.6 mL blood samples were collected at 0.5, 1, 1.5, 2, 2.5, 3, 5, 8, 12 and 24 h after drug administration from the venous sinuses and added into EP tubes which were rinsed with heparin sodium previously. The samples were centrifuged at 4,000 r/min for 15 min and the upper plasma were obtained. 300 μL plasma was subjected to analysis and the chromatogram and peak area were recorded. The plasma concentrations of compounds 1 and 2 were calculated to give average concentration-time curve.
DAS 2.0 program was used to analyze plasma concentration vs. time data after s single oral dose (Table 6, 7). Fitting and the AIC methods were used to determine the model. The analysis was based on the principle that the larger fitting and the smaller AIC, the better model. The oral administration was consistent with the two-compartment model. The statistical distance parameter is used to compare the 2 compounds for the pharmacokinetic parameters.

[9] = Plasma stability; format: in vitro ADME; conditions: rat plasma
Procedure: as §2
[…] The samples were prepared according to the method of 3.1. 20 μL were introduced into the HPLC system and the peak area is recorded for analysis to determine the stability of compound 1 and 2 in plasma.

[10] = target: GSK3b (Homo sapiens, UniProt P49841); test: Kinase IC50, 33P labeled isotope method; format: biochemical; conditions: 20 μM ATP
[11] = target: T1, FLT3 (Homo sapiens, UniProt P36888); test: Kinase IC50, 33P labeled isotope method; format: biochemical; conditions: 20 μM ATP
T1 sequence (P36888 610-943 limits assumed): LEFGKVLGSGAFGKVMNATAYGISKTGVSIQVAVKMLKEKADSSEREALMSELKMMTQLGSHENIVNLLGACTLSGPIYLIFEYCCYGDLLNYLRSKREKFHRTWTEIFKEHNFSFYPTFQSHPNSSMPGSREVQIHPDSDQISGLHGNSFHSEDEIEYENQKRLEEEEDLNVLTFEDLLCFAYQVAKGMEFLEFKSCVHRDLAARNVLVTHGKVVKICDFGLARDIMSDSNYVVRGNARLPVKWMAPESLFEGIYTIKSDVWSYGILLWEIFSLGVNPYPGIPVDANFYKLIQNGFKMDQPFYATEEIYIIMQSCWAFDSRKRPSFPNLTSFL

[12] = male, Wistar, plasma, rat, oral 30 mg/kg

Sequence of CDK9/cyclin K (P50750 19-315 limits assumed): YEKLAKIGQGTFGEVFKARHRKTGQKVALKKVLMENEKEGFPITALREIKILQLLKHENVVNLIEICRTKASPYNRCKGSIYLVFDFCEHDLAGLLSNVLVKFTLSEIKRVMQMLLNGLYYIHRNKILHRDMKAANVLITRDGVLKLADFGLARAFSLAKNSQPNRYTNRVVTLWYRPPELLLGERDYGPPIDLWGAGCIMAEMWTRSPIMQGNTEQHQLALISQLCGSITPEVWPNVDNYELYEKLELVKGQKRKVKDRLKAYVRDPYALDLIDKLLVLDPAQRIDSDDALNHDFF
Sequence of CDK9/cyclin K (O75909 whole entry partner): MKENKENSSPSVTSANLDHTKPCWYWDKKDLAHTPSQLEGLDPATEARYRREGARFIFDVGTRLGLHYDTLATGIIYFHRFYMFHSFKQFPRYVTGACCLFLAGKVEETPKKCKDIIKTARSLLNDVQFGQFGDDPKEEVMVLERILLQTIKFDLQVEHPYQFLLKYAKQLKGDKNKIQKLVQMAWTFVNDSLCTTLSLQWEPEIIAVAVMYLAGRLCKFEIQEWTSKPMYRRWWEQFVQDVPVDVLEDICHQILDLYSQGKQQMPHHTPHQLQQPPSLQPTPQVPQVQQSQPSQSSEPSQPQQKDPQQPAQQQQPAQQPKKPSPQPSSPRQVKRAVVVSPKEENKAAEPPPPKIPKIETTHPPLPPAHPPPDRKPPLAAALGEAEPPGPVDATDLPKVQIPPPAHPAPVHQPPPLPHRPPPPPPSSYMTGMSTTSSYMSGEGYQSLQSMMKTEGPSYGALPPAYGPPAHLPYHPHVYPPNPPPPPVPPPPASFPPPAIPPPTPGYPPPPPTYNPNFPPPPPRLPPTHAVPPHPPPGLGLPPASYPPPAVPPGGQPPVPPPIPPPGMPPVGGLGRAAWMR
Sequence of GSK3b (P49841 56-340 limits assumed): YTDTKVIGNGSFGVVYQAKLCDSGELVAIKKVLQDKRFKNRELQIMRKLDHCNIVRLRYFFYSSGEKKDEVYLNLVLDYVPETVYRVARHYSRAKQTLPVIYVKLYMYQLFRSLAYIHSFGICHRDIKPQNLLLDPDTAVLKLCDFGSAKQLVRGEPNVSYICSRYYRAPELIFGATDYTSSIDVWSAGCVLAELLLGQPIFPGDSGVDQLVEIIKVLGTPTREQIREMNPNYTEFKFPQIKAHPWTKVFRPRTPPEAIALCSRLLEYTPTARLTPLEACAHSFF

CN1CCN(Cc2ccc(NC(=O)c3n[nH]cc3Nc3ncnc4sccc34)cc2)CC1 [Compound I-1, 4-(4-thieno[2,3-d]pyrimidinylamino)-N-(4-((4-methyl-1-piperazinyl)methyl)phenyl)-1H-3-pyrazole carboxamide]
IC50 [1]: 39 nM
MIC [2]: 2.08 µg/mL (≈ 4.64 µM)
MIC [3]: 2.9 µg/mL (≈ 6.47 µM)
MIC [4]: 3.64 µg/mL (≈ 8.11 µM)
MIC [5]: 2.3 µg/mL (≈ 5.13 µM)
IC50 [6]: 3.3 µM
Severity of tomato leaf blight ([7]; 0.0001 (unit not given)): +++ (40-60% blight)
Severity of tomato leaf blight ([7]; 0.001 (unit not given)): ++ (15-40% blight)
Severity of tomato leaf blight ([7]; 0.01 (unit not given)): + (0-15% blight)
Severity of tomato leaf blight ([7]; 0.1 (unit not given)): −
Cmax [8, 12]: 241 ± 103 ng/mL
Tmax [8, 12]: 5.5 ± 2.29 h
half-life [8, 12]: 45.8 ± 29.1 h
AUC(0-t) ([8]; male, Wistar, plasma, rat, oral 30 mg/kg, read-out: AUC 0-24): 3350 ± 468 ng·h/mL
MRT last ([8]; male, Wistar, plasma, rat, oral 30 mg/kg, read-out: MRT 0-24): 11.6 ± 1.09 h
concentration at 0.5 h ([8]; male, Wistar, rat, plasma, po, 30 mg/kg, mean of rats, oral 30 mg/kg, time 0.5 h, read-out: Plasma concentration, mean): 72.7 ng/mL
concentration at 1 h ([8]; male, Wistar, rat, plasma, po, 30 mg/kg, mean of rats, oral 30 mg/kg, time 1 h, read-out: Plasma concentration, mean): 82.8 ng/mL
concentration at 2 h ([8]; male, Wistar, rat, plasma, po, 30 mg/kg, mean of rats, oral 30 mg/kg, time 2 h, read-out: Plasma concentration, mean): 103 ng/mL
concentration at 2.5 h ([8]; male, Wistar, rat, plasma, po, 30 mg/kg, mean of rats, oral 30 mg/kg, time 2.5 h, read-out: Plasma concentration, mean): 113 ng/mL
concentration at 3 h ([8]; male, Wistar, rat, plasma, po, 30 mg/kg, mean of rats, oral 30 mg/kg, time 3 h): 154 ng/mL
concentration at 5 h ([8]; male, Wistar, rat, plasma, po, 30 mg/kg, mean of rats, oral 30 mg/kg, time 5 h): 164 ng/mL
concentration at 8 h ([8]; male, Wistar, rat, plasma, po, 30 mg/kg, mean of rats, oral 30 mg/kg, time 8 h, read-out: Plasma concentration, mean): 195 ng/mL
concentration at 12 h ([8]; male, Wistar, rat, plasma, po, 30 mg/kg, mean of rats, oral 30 mg/kg, time 12 h, read-out: Plasma concentration, mean): 134 ng/mL
concentration at 24 h ([8]; male, Wistar, rat, plasma, po, 30 mg/kg, mean of rats, oral 30 mg/kg, time 24 h): 123 ng/mL
concentration at 0.5 h ([8]; male, Wistar, rat, plasma, po, 30 mg/kg, rat No. 1-6, oral 30 mg/kg, time 0.5 h, read-out: Plasma concentration, individual rats): 68.8 ng/mL
concentration at 1 h ([8]; male, Wistar, rat, plasma, po, 30 mg/kg, rat No. 1-6, oral 30 mg/kg, time 1 h, read-out: Plasma concentration, individual rats): 105 ng/mL
concentration at 2 h ([8]; male, Wistar, rat, plasma, po, 30 mg/kg, rat No. 1-6, oral 30 mg/kg, time 2 h, read-out: Plasma concentration, individual rats): 114 ng/mL
concentration at 2.5 h ([8]; male, Wistar, rat, plasma, po, 30 mg/kg, rat No. 1-6, oral 30 mg/kg, time 2.5 h, read-out: Plasma concentration, individual rats): 100 ng/mL
concentration at 8 h ([8]; male, Wistar, rat, plasma, po, 30 mg/kg, rat No. 1-6, oral 30 mg/kg, time 8 h, read-out: Plasma concentration, individual rats): 157 ng/mL
concentration at 12 h ([8]; male, Wistar, rat, plasma, po, 30 mg/kg, rat No. 1-6, oral 30 mg/kg, time 12 h, read-out: Plasma concentration, individual rats): 108 ng/mL
Plasma concentration, individual rats ([8]; rat No. 1-6, oral 30 mg/kg, time 0.5 h, 30 mg/kg): 68.95 ng*ml/1 and 65.08 ng*ml/1 and 76.41 ng*ml/1 and 80.51 ng*ml/1 and 76.52 ng*ml/1
Plasma concentration, individual rats ([8]; rat No. 1-6, oral 30 mg/kg, time 1 h, 30 mg/kg): 65.58 ng*ml/1 and 73.81 ng*ml/1 and 81.17 ng*ml/1 and 80.91 ng*ml/1 and 90.92 ng*ml/1
Plasma concentration, individual rats ([8]; rat No. 1-6, oral 30 mg/kg, time 2 h, 30 mg/kg): 97.96 ng*ml/1 and 100.94 ng*ml/1 and 86.23 ng*ml/1 and 86.97 ng*ml/1 and 132.81 ng*ml/1
Plasma concentration, individual rats ([8]; rat No. 1-6, oral 30 mg/kg, time 2.5 h, 30 mg/kg): 96.8 ng*ml/1 and 113.35 ng*ml/1 and 104.16 ng*ml/1 and 106.91 ng*ml/1 and 158.41 ng*ml/1
Plasma concentration, individual rats ([8]; rat No. 1-6, oral 30 mg/kg, time 3 h, 30 mg/kg): 149.67 ng*ml/1 and 112.43 ng*ml/1 and 125.86 ng*ml/1 and 78.87 ng*ml/1 and 266.46 ng*ml/1 and 191.06 ng*ml/1
Plasma concentration, individual rats ([8]; rat No. 1-6, oral 30 mg/kg, time 5 h, 30 mg/kg): 174.04 ng*ml/1 and 159.33 ng*ml/1 and 115.59 ng*ml/1 and 172.92 ng*ml/1 and 127.6 ng*ml/1 and 232.81 ng*ml/1
Plasma concentration, individual rats ([8]; rat No. 1-6, oral 30 mg/kg, time 8 h, 30 mg/kg): 150.59 ng*ml/1 and 233.26 ng*ml/1 and 151.83 ng*ml/1 and 271.51 ng*ml/1 and 205.77 ng*ml/1
Plasma concentration, individual rats ([8]; rat No. 1-6, oral 30 mg/kg, time 12 h, 30 mg/kg): 135.84 ng*ml/1 and 153.29 ng*ml/1 and 135.94 ng*ml/1 and 110.59 ng*ml/1 and 162.93 ng*ml/1
Plasma concentration, individual rats ([8]; rat No. 1-6, oral 30 mg/kg, time 24 h, 30 mg/kg): 126.6 ng*ml/1 and 105.83 ng*ml/1 and 167.23 ng*ml/1 and 133.16 ng*ml/1 and 79.81 ng*ml/1 and 123.91 ng*ml/1
pharmacokinetic parameters (in words) ([8]; rat, oral 30 mg/kg): acceptable
plasma stability in 24 h (in words) ([9]; 24 h): good plasma stability
Plasma stability (HPLC reading) ([9]; Time 0 h): 2.16
Plasma stability (HPLC reading) ([9]; Time 1 h): 2.24
Plasma stability (HPLC reading) ([9]; Time 2 h): 2.22
Plasma stability (HPLC reading) ([9]; Time 3 h): 2.12
Plasma stability (HPLC reading) ([9]; Time 5 h): 2.11
Plasma stability (HPLC reading) ([9]; Time 8 h): 1.91
Plasma stability (HPLC reading) ([9]; Time 12 h): 1.84
Plasma stability (HPLC reading) ([9]; Time 24 h): 1.95

Cc1cc2c(Nc3c[nH]nc3C(=O)Nc3ccc(CN4CCN(C)CC4)cc3)ncnc2[nH]1 [Compound I-13, 4-(4-(6-methyl-7H-pyrrolo[2,3-d]pyrimidinyl)amino)-N-(4-((4-methyl-1-piperazinyl)methyl)phenyl)-1H-3-pyrazolecarboxamide]
IC50 [1]: 43 nM
MIC [2]: 0.98 µg/mL (≈ 2.2 µM)
MIC [3]: 5.85 µg/mL (≈ 13.1 µM)
MIC [4]: 4.23 µg/mL (≈ 9.49 µM)
MIC [5]: 3.24 µg/mL (≈ 7.27 µM)
melting point: 268 to 270 °C
IC50 [10]: 1 nM
IC50 [11]: 1 nM
Severity of tomato leaf blight ([7]; 0.0001 (unit not given)): ++ (15-40% blight)
Severity of tomato leaf blight ([7]; 0.001 (unit not given)): ++ (15-40% blight)
Severity of tomato leaf blight ([7]; 0.01 (unit not given)): + (0-15% blight)
Severity of tomato leaf blight ([7]; 0.1 (unit not given)): −
